In patent publication US20250057805A1, “METHODS FOR ADDRESSING INJECTION SITE REACTIONS ASSOCIATED WITH THE ADMINISTRATION OF BEVEMIPRETIDE” (Stealth BioTherapeutics Inc., priority 2023, published 2025):

Legend:
[1] = target: T1, human MRGPRX2 (Homo sapiens, UniProt Q96LB1); test: Calcium mobilization (Fluo-4 AM) in MRGPRX2 expressing Chem-1 cells; type: cell-based; set-up: host or cells: Chem-1 cells (G418-selected); settings: for inhibition of the activation of the MRGPRX2 receptor caused by bevemipretide: MRGPRX2 expressing cells with 100 μM of bevemipretide, FIGS. 7A and 7B; for activation of the MRGPRX2 expressing cells (calcium response): MRGPRX2 expressing Chem-1 cells, FIG. 5A, FIG. 6
T1 sequence (Q96LB1 1-330): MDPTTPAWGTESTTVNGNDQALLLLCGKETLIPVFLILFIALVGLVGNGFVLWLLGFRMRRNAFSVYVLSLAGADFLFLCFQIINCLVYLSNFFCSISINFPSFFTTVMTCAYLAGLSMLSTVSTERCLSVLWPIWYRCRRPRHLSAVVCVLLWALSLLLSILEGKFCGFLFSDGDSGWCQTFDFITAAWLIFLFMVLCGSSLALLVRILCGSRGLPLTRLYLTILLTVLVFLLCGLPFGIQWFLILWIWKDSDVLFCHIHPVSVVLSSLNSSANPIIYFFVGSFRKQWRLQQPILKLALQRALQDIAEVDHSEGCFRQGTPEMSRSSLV
Procedure: (§1) MRGPRX2 expressing and control (non-MRGPRX2 expressing) Chem-1 cells lines were obtained from Discovery Services, EuroFins. Cells were cultured in Dulbecco's Modified Eagle Medium (DMEM) high glucose medium (4.5 g/L) with 10% fetal bovine serum (FBS), non-essential amino acids, and N-2-hydroxyethylpiperazine-N′-2-ethanesulfonic acid (HEPES) buffer (pH 7.0-7.6). Geneticin (G418) was used for selection of MRGPRX2-expressing Chem-1 cells. Cells were maintained at 37° C. at 5% CO2. Cells were seeded to a glass bottom 96-well plates at a density of 50,000 per well (Cellvis). Cells were loaded with Fluo-4 AM for 30 minutes at 37° C. at a concentration of 2.5 μM. Cells were washed once with Dulbecco's phosphate buffered saline (DPBS). Cells were rested at room temperature for 30 minutes before use and washed with DPBS. Cells were resuspended in 50 μL phosphate buffered saline (PBS) with calcium and magnesium. To stimulate cells, 50 μL of 2× drug (bevemipretide or leuprolide) or DPBS as a control. Plates were read immediately with a Biotek plate reader. Readings were taken every 6 seconds for 2 minutes.
(§2) This assay was designed as a calcium-based readout of receptor activity.

[2] = system: control (non-MRGPRX2 expressing) Chem-1 cells; test: Calcium mobilization (Fluo-4 AM) in control Chem-1 cells lacking the MRGPRX2 receptor; type: cell-based, human; settings: parent Chem-1 cells lacking MRGPRX2; FIG. 5B
Procedure: as §1, §2

[3] = Long term toxicology studies in rats, subcutaneous administration; type: in vivo
[4] = target: T1, human MRGPRX2; test: Fluo-4 calcium assay in HEK293 cells stably expressing human MRGPRX2 and Galpha15 (fluorescent plate reader); type: cell-based; set-up: expressed in transfected cells; host or cells: clonal HEK293 cell line; settings: calcium response, multiple runs, FIG. 4
Procedure: A clonal HEK293 cell line stably expressing human MRGPRX2 and Galpha15 was used for the assay, which was performed using a fluorescent plate reader. Cells were plated at 40,000 cells per well in a glass-bottom 96 well plate 20 hours before the assay. Cells were loaded with N-[4-[6-[(Acetyloxy)methoxy]-2,7-difluoro-3-oxo-3H-xanthen-9-yl]-2-[2-[2-[bis[2-[(acetyloxy)methoxy]-2-oxoethyl]amino]-5-methylphenoxy]ethoxy]phenyl]-N-[2-[(acetyloxy)methoxy]-2-oxoethyl]glycine (acetyloxy)methyl ester (Fluo-4 AM) for 45 minutes at 37°° C. and allowed to rest for 30 minutes before use. Baseline fluorescence was calculated as the average of a 30 second read, with data points taken at 5 second intervals. Response was defined as the maximum signal within 90 seconds after addition of bevemipretide, subtracted by the baseline fluorescence signal. Concentrations were tested in duplicate and the assay was run 6 times. The curve was calculated as a four-parameter non-linear fit with variable slope. Traces were obtained using the same cell line and same Fluo-4 AM loading protocol but were imaged using a fluorescence microscope using a standard fluorescein isothiocyanate (FITC) filter. Fluorescence for different cells was calculated using region of interest selections.

[5] = Long term toxicology studies of non-human primates; type: in vivo
[6] = Phase 1 human clinical trial, subcutaneous administration; type: in vivo; settings: phase 1, subcutaneous administration

SMILES | inhibition of the activation of the MRGPRX2 receptor caused by bevemipretide [1] | activation of the MRGPRX2 expressing cells (calcium response) [1] | effect on cells lacking the MRGPRX2 receptor (calcium response) [2] | further results
O=c1c(O)c(-c2ccc(O)c(O)c2)oc2cc(O)cc(O)c12 [quercetin, 3,3′,4′,5,7-pentahydroxyflavone] | in a dose-dependent manner, inhibit the activation |  |  | 
C[C@H](CCC(=O)O)C[C@H](C)C[C@H](C)C(=O)/C=C(\O)[C@H](C)C[C@H](C)C/C=C/[C@@H](C)[C@@H](O)[C@@H](C)[C@@H](O)C[C@@H]1CC[C@@](C)([C@H]2CC[C@@](C)([C@@H](C)O)O2)O1 [Ionomycin, reference compound] |  | generates a calcium response | generates a calcium response | 
Cc1cc(O)cc(C)c1C[C@H](NC(=O)[C@H](N)CCCNC(=N)N)C(=O)N[C@@H](CCCCN)c1nc(Cc2ccccc2)no1 [bevemipretide] |  | dose dependent activation | no effect | injection site reactions [3]: injection site reactions were observed from subcutaneous administration; some being severe at the higher dose levels administered; EC50 [4]: 43.8 to 54.1 µM; injection site reactions [5]: generally not severe even at the highest dosages tested; injection site reactions [6]: injection site reactions were observed as an adverse event
CCNC(=O)[C@@H]1CCCN1C(=O)[C@H](CCCNC(=N)N)NC(=O)[C@H](CC(C)C)NC(=O)[C@@H](CC(C)C)NC(=O)[C@H](Cc1ccc(O)cc1)NC(=O)[C@H](CO)NC(=O)[C@H](Cc1c[nH]c2ccccc12)NC(=O)[C@H](Cc1c[nH]cn1)NC(=O)[C@@H]1CCC(=O)N1 [leuprolide] |  | dose dependent activation |  | 
C[C@@H]1C[C@H]2[C@@H]3CCC4=CC(=O)C=C[C@]4(C)[C@@]3(Cl)[C@@H](O)C[C@]2(C)[C@@]1(O)C(=O)CCl [monetasone, mometasone] | in a dose-dependent manner, inhibit the activation |  |  | 
